Source: patent US20010044463A1, “Methods for controlling gram negative bacteria in mammals” (priority 1997, published 2001)

Legend:
[1] = system: H. pylori ATCC 43504; test: Minimum Inhibitory Concentration (MIC) blood agar plate growth inhibition; type: cell-based, Helicobacter pylori
Procedure: Subsequent dilutions were made in ethanol immediately prior to use. […] Subsequent dilutions were made in BHI medium (Brain heart infusion broth, Difco #0037-07-0) immediately prior to use.
(§1) Blood agar base (BAB) was prepared containing 1.5% agar and autoclaved. 20 ml samples of autoclaved BAB were poured into 50 mL tubes and placed in a 56° C. water bath.
The mixed media preparation was poured into a petri dished and allowed to solidify.
(§2) Prior to inoculation of petri plates, bacteria or cultures were examined for morphology under a phase microscope to confirm motility and physical characteristics, e.g., spiral shaped. The organisms were washed off the plate into PBS (Phosphate buffered saline) (80.0 g NaCl, 2.0 g KCl, 2.4 g KH2PO4 11.5 g Na2HPO4 or 24.4 g Na2HPO4/2H2O per 1 liter deionized water, pH 7.2, sterilized by autoclaving) and diluted into BHI at a concentration of 10^8/ml (O.D. of 0.3 units diluted 1:30). Ten microliters of solution containing 10^6 organisms were spread onto a petri plate and grown under microaerophilic conditions for 3 days unless specified. Control organisms were grown under microaerophilic conditions.
(§3) Inhibition of growth was determined by the amount of colonies present within the petri plate. The following factors were used for growth inhibition: ±=0-20 colonies, +=20-50 colonies, ++=50-200 colonies and +++=200+ colonies.

[2] = system: H. pylori (urease positive) ATCC Number 51652; test: as above; type: cell-based, Helicobacter pylori; settings: Table XVII, Blood agar base + 3% sheep blood
Procedure: (§4) Monensin (Sigma Cat. No. M-5273) was dissolved in 100% absolute ethanol (AAPER Alcohol and Chemical Co.) at a concentration of 20 mg/ml. Subsequent dilutions were made in ethanol immediately prior to use. Nigericin (Sigma Cat. No. N-7143) was dissolved in DMSO at 2 mg/ml. Subsequent dilutions were made in BHI medium (Brain heart infusion broth, Difco #0037-07-0) immediately prior to use.
as §1
(§5) 100 μl of a drug (final concentration equivalent to 1:200 of original concentration) and 1.2 ml of sheep blood (Colorado Senun Company # CS-1112) (blood diluted in a 1:1 buffer providing a 3% concentration of blood per 20 ml medium sample) were added to 20 ml sample of media and mixed. The mixed media preparation was poured into a petri dished and allowed to solidify.
as §2, §3

[3] = system: Staph ATCC 14775; test: Blood agar plate growth inhibition, control organism; type: cell-based; settings: Table XV, Non microaerophilic conditions
Procedure: as §4, §1, §5
as §2, with “Control organisms were grown under microaerophilic conditions.” left out
as §3

[4] = final drug concentration 0.1 ng/ml
[5] = final drug concentration 1 ng/ml
[6] = final drug concentration 10 ng/ml
[7] = final drug concentration 100 ng/ml
[8] = final drug concentration 1 μg/ml
[9] = final drug concentration 10 μg/ml
[10] = Tables IX-XIII, final drug concentration 0.098 μg/ml
[11] = Tables IX-XIII, final drug concentration 0.195 μg/ml
[12] = Tables IX-XIII, final drug concentration 0.39 μg/ml
[13] = Tables IX-XIII, final drug concentration 0.78 μg/ml
[14] = Tables IX-XIII, final drug concentration 1.56 μg/ml
[15] = Tables IX-XIII, final drug concentration 3.125 μg/ml
[16] = Tables IX-XIII, final drug concentration 6.25 μg/ml
[17] = Tables IX-XIII, final drug concentration 12.5 μg/ml
[18] = Tables IX-XIII, final drug concentration 25 μg/ml
[19] = Tables IX-XIII, final drug concentration 50 μg/ml
[20] = Tables IX-XIII, final drug concentration 100 μg/ml

Compound	growth (amount of colonies present within the petri plate) [2, 4]	growth (amount of colonies present within the petri plate) [2, 5]	growth (amount of colonies present within the petri plate) [2, 6]	growth (amount of colonies present within the petri plate) [2, 7]	growth (amount of colonies present within the petri plate) [2, 8]	growth (amount of colonies present within the petri plate) [2, 9]	MIC ([1]; Tables IX-XIII)	growth (amount of colonies present within the petri plate) [1, 10]	growth (amount of colonies present within the petri plate) [1, 11]	growth (amount of colonies present within the petri plate) [1, 12]	growth (amount of colonies present within the petri plate) [1, 13]	growth (amount of colonies present within the petri plate) [1, 14]	growth (amount of colonies present within the petri plate) [1, 15]	growth (amount of colonies present within the petri plate) [1, 16]	growth (amount of colonies present within the petri plate) [1, 17]	growth (amount of colonies present within the petri plate) [1, 18]	growth (amount of colonies present within the petri plate) [1, 19]	growth (amount of colonies present within the petri plate) [1, 20]	also measured
CC[C@@H](C(=O)[C@@H](C)[C@@H](O)[C@H](C)CCc1ccc(C)c(O)c1C(=O)O)[C@H]1O[C@](CC)([C@H]2CC[C@](O)(CC)[C@H](C)O2)C[C@@H]1C [Lasalocid, lasalocid]	(+++) (+++=200+ colonies)	(+++) (+++=200+ colonies)	(+++) (+++=200+ colonies)	(+++) (+++=200+ colonies)	(+++) (+++=200+ colonies)	(+++) (+++=200+ colonies)	–	–	–	–	–	–	–	–	–	–	–	–	growth (amount of colonies present within the petri plate) ([1]; Table VII, urease positive, final drug concentration 10 μg/ml): (+++) (+++=200+ colonies); growth (amount of colonies present within the petri plate) [3, 6]: (+++) (+++=200+ colonies); growth (amount of colonies present within the petri plate) [3, 7]: (+++) (+++=200+ colonies); growth (amount of colonies present within the petri plate) [3, 8]: (+++) (+++=200+ colonies); growth (amount of colonies present within the petri plate) [3, 9]: No growth
CC[C@@]1([C@@H]2O[C@@H]([C@H]3O[C@@](O)(CO)[C@H](C)C[C@@H]3C)C[C@@H]2C)CC[C@H]([C@]2(C)CC[C@]3(C[C@H](O)[C@@H](C)[C@@H]([C@@H](C)[C@@H](OC)[C@H](C)C(=O)OCc4ccccc4)O3)O2)O1 [Benzyl Monensin, monensin benzyl ester]	–	–	–	–	–	–	MIC = 25 μg/ml	(+++) (+++=200+ colonies)	(+++) (+++=200+ colonies)	(+++) (+++=200+ colonies)	(+++) (+++=200+ colonies)	(+++) (+++=200+ colonies)	(+++) (+++=200+ colonies)	(+++) (+++=200+ colonies)	(++) (++=50-200 colonies)	(±) (±=0-20 colonies)	(±) (±=0-20 colonies)	(±) (±=0-20 colonies)	–
26-O Phenylmonensin [Monensin phenyl carbamate]	–	–	–	–	–	–	MIC = 1.56 μg/ml	(+++) (+++=200+ colonies)	(+++) (+++=200+ colonies)	(++) (++=50-200 colonies)	(++) (++=50-200 colonies)	(+) small colonies (+=20-50 colonies)	(±) few small colonies (±=0-20 colonies)	No growth	No growth	No growth	No growth	No growth	–
CNc1ccc2oc(C[C@H]3O[C@@]4(CC[C@H]3C)O[C@H]([C@H](C)C(=O)c3ccc[nH]3)[C@H](C)C[C@H]4C)nc2c1C(=O)O [A23187]	(+++) (+++=200+ colonies)	(+++) (+++=200+ colonies)	(+++) (+++=200+ colonies)	(+++) (+++=200+ colonies)	No growth	No growth	–	–	–	–	–	–	–	–	–	–	–	–	–
CCC1(C2OC(C3OC(O)(COC(=O)NC(C)NC(=O)OCC4c5ccccc5-c5ccccc54)C(C)CC3C)CC2C)CCC(C2(C)CCC3(CC(O)C(C)C(C(C)C(OC)C(C)C(=O)O)O3)O2)O1 (centres unmarked) [Fmoc-Ala-monensin, 26-O-[1-(Fmoc-amino)ethylcarbamoyl] monensin]	–	–	–	–	–	–	MIC = 6.25 μg/ml	(+++) (+++=200+ colonies)	(+++) (+++=200+ colonies)	(+++) (+++=200+ colonies)	(+++) (+++=200+ colonies)	(+++) (+++=200+ colonies)	(+++) (+++=200+ colonies)	(±) (±=0-20 colonies)	No growth	No growth	No growth	No growth	–
C[C@H](CCC(=O)O)C[C@H](C)C[C@H](C)C(=O)/C=C(\O)[C@H](C)C[C@H](C)C/C=C/[C@@H](C)[C@@H](O)[C@@H](C)[C@@H](O)C[C@@H]1CC[C@@](C)([C@H]2CC[C@@](C)([C@@H](C)O)O2)O1 [Ionomycin, ionomycin]	(+++) (+++=200+ colonies)	(+++) (+++=200+ colonies)	(+++) (+++=200+ colonies)	(+++) (+++=200+ colonies)	(+++) (+++=200+ colonies)	(+++) (+++=200+ colonies)	–	–	–	–	–	–	–	–	–	–	–	–	–
CCC1(C2OC(C3OC(O)(COC(=O)Nc4cccnc4)C(C)CC3C)CC2C)CCC(C2(C)CCC3(CC(O)C(C)C(C(C)C(OC)C(C)C(=O)O)O3)O2)O1 (centres unmarked) [Monensin pyridyl carbamate, 26-O-(3-pyridylcarbamoyl) monensin]	–	–	–	–	–	–	MIC = 3.12 μg/ml	(+++) (+++=200+ colonies)	(+++) (+++=200+ colonies)	(+++) (+++=200+ colonies)	(+++) (+++=200+ colonies)	(++) (++=50-200 colonies)	(±) (±=0-20 colonies)	No growth	No growth	No growth	No growth	No growth	–
